The subject of series [1] is Ba/F3 ROS1 L2086F, S1986F/L2086F, S1986F/G2032R/L2086F. Description: Antiproliferation assay, resistant mutations involving L2086F. The note with it: Mus musculus, BaF3; Ba/F3 cells, summary of Table 6; read-out: potency against resistant mutations involving L2086F, S1986F/L2086F, S1986F/G2032R/L2086F. The series is classed as cell-based. How it is done: To assess the 72 h effect of drug treatment on cell proliferation, 2000 to 3000 cells were plated in replicates of three in 96-well plates. The plates were placed in an incubator at 37 °C, 5% CO2 for 72 h. Following drug treatments, the cells were incubated with the Alamar Blue Assay reagent (BioRad), 5 μL each well for 4 h at 37 °C and 5% CO2. Luminescence was measured on a multiplate reader and analyzed. […] IC50 values were determined using a nonlinear regression model with a sigmoidal dose response in GraphPad. The data were collected based on triplicate experiments, and presented as mean ± SD.

The next series addresses CHEK2 (Homo sapiens, UniProt O96017). Description: Kinase assay. The series is classed as biochemical. The note with it: average of duplicate measurements.
Series [2] is described as follows: Pharmacokinetics study in Sprague–Dawley rats. The series is classed as in vivo. The note with it: rat.
Series [3] in a line: Metabolic stability in human microsomes. The note with it: human, pooled human microsomes, pH 7.4, 250 nM compound, NADPH, 37 °C. It counts as in vitro ADME.
The target of another series is CAMK2G (Homo sapiens, UniProt Q13555). Description: Kinase assay. It counts as biochemical. The note with it: average of duplicate measurements.
Another series has as its system ROS1 (L2086F). Description: Degradation assay. It counts as cell-based. The note with it: average of duplicate measurements. Here is the method:
However, the degradation selectivity of 9o often contrasts with its kinase binding selectivity as determined in cells treated with 9o where the kinase level was measurable by Western blot analysis. […] For example, FLT3, CHEK2, and FES, all with kinase binding at <10 nM, were only moderately or minimally degraded, if at all (Table 9).
Protein levels were analyzed using a WES instrument according to the WES User Guide from ProteinSimple in duplicate experiments. The samples were mixed with the fluorescent 5 master mix (ProteinSimple) and then heated at 95 °C for 5 min. Boiled samples, biotinylated protein ladder, antibody diluent, Streptavidin-HRP, primary antibodies, ProteinSimple horseradish peroxidase conjugated antirabbit or antimouse secondary antibodies, luminol-peroxide, and wash buffer were loaded into the WES plate (Wes 12–230 kDa Prefilled Plates with Split Buffer, ProteinSimple). The plates and capillary cartridges were loaded into the WES instrument, and protein separation, antibody incubation, and imaging were performed according to manufacturer’s instructions. Compass software (ProteinSimple) was used to acquire the data and to generate the virtual blot image reconstruction and chemiluminescence signal intensity electropherograms. […] Protein levels are expressed as the AUC of the peak chemiluminescence intensity. […]

Molecules are shown by their SMILES. “And” between values parts separate entries of the source, which are not always exact repeats. Identical values can stand only once.

As a reminder, the Cmax is the maximum level reached in the sampled fluid or tissue. By bioavailability is commonly meant the share of a dose that reaches the circulation, judged against a reference dose that is usually intravenous. The Tmax is the time at which the peak concentration occurs. Broadly, the microsomal CLint is the capacity of the preparation to metabolise the compound, expressed as a volume cleared per time. As a reminder, the DC50 is the midpoint of the concentration-degradation curve. Low readings indicate a more potent degrader, high ones a less potent degrader.

CHEK2, sequence (O96017 whole entry, species assumed): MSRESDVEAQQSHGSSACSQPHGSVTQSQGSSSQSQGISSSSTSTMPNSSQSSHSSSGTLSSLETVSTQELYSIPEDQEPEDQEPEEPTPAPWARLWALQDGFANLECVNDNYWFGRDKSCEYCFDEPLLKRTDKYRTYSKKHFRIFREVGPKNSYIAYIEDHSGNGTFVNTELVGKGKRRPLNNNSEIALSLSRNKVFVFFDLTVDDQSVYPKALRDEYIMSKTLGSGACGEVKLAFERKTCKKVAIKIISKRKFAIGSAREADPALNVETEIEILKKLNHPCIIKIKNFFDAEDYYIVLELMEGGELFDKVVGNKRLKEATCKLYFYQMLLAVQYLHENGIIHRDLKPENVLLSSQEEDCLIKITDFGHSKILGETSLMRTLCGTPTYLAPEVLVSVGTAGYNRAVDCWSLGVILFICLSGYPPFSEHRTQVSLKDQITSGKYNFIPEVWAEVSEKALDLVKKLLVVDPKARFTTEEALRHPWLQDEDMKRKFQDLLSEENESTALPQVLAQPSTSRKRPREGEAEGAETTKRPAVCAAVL
CAMK2G, sequence (Q13555 whole entry, species assumed): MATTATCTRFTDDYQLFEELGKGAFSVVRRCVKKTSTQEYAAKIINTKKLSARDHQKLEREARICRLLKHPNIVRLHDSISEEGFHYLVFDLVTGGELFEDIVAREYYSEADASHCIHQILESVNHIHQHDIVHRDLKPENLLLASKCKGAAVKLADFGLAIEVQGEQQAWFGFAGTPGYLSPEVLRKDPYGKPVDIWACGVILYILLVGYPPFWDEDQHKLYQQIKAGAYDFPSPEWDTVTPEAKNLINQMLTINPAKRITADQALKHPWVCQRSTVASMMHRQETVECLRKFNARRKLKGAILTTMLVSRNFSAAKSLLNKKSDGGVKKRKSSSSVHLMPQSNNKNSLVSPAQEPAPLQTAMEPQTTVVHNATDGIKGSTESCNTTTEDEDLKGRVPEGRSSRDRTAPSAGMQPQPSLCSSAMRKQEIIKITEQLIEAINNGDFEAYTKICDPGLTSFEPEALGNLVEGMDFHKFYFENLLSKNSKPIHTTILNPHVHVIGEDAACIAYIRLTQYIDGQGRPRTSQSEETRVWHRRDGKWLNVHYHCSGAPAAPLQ

For the molecule `COc1cc(N2CCC(N3CCN(CC4CCN(c5ccc6c(c5)CN(C5CCC(=O)NC5=O)C6=O)CC4)CC3)CC2)ccc1Nc1ncc(Cl)c(Nc2ccccc2P(C)(C)=O)n1` (centres unmarked) [9o, 3-(5-(4-((4-(1-(4-((5-Chloro-4-((2-(dimethylphosphoryl)phenyl)amino)pyrimidin-2-yl)amino)-3-methoxyphenyl)piperidin-4-yl)piperazin-1-yl)methyl)piperidin-1-yl)-1-oxoisoindolin-2-yl)piperidine-2,6-dione], the IC50 in series [1] was in the range of 1.9 to 66 nM. Further, the IC50 against CHEK2 was < 10 nM and 3.6 nM. Besides, the Cmax at 24 h in series [2] (Sprague-Dawley [Crl: CD (SD)], plasma, 5 mg/kg po) amounted to 94 ng/mL. Further, the bioavailability in series [2] (Sprague-Dawley [Crl: CD (SD)], plasma, 5 mg/kg po vs 0.5 mg/kg iv) is 7.3%. For the same molecule, in series [2] (5 mg/kg po), the “AUC (po)” value turned out to be 1267 ng·h/mL, the T1/2 worked out at 7.32 h and the Tmax was found to be 2 h. The molecule also yielded a microsomal CLint at 1 h, 0.25 µM in series [3] of 71.1 µL/min/mg. Moreover, in series [3] (read-out: metabolic stability in human microsomes T1/2), the half-life at 1 h, 0.25 µM is 0.813 h. On CAMK2G, this molecule registered an IC50 of 48 nM. This molecule yielded a DC50 in the series with ROS1 (L2086F) of 5.4 nM.

These data come from PMC11513893, “Discovery of Oral Degraders of the ROS1 Fusion Protein with Potent Activity against Secondary Resistance Mutations” (Journal of Medicinal Chemistry, 2024).
